Measured values published in article PMC9686674, “Potent Anti-Inflammatory Effects of a Helix-to-Helix Peptide against Pseudomonas aeruginosa Endotoxin-Mediated Sepsis” (Antibiotics, 2022).
Ends that are not written are not given here.

Legend:
[1] = tested on: Escherichia coli, Pseudomonas aeruginosa, Staphylococcus aureus, and Listeria monocytogenes; type: cell-based
Experimental: The antibacterial activity was examined using a microdilution assay with Eschrichia coli (ATCC 25922), P. aeruginosa (ATCC 15692) and Staphylococcus aureus (ATCC 25923), which were obtained from the American Type Culture Collection. Listeria monocytogenes (KCTC 3710) was obtained from the Korean Collection for Type Cultures. Cell survival was investigated using the 3-(4,5-dimethylthiazol-2-yl)-2,5-diphenyltetrazolium bromide assay in RAW264.7 cells. The assay was performed as described previously.

Balb/c mice lungs = test: LPS-induced acute lung injury (ALI) in mice; type: in vivo; settings: 1 mg/kg intratracheal, 3 days, histology
Experimental: Figure 8 In vivo anti-inflammatory effects of peptides in acute lung injury. Pseudomonas aeruginosa LPS (500 ng) was intratracheally instilled in mice lungs. One hour after instillation, peptides were intratracheally administered, followed by monitoring for 3 days. Lungs collected from the euthanized mice were digitally visualized and tissues were stained using eosin/alcian blue, H&E, PE-conjugated TNF-α, and IL6 antibody. Bar is 50 µm.
P. aeruginosa LPS (500 ng) in 50 µL PBS was intratracheally instilled into seven-week-old female Balb/c mice. One hour after exposure, each peptide was intratracheally administered at the indicated dose in 50 µL PBS. Control mice were injected with 50 µL PBS without the peptides. Mice were monitored for signs of morbidity for 3 days after LPS exposure. Mice were euthanized using CO2 inhalation, and the lung tissues were excised and fixed in 4% paraformaldehyde. The fixed tissues were dehydrated using a series of ethanol solutions (50−100%) and embedded in paraffin. The tissues embedded with paraffin were sectioned with a thickness of 5 µm (Leica microtome, Deerfield, MA, USA). Histopathology of the lung tissues was performed using alcian blue and eosin and H&E staining. […] The stained tissue sections were observed under a fluorescence microscope (OPTINIT KCS3-160S; Korea Lab Tech, Seongnam, Gyeonggi-do, Republic of Korea).

RAW 264.7 cells [2] = test: LPS-stimulated ROS generation (H2DCFDA fluorescence microscopy); type: cell-based, murine; settings: RAW 264.7, peptides 8 µM pre-incubated 30 min, P. aeruginosa LPS 100 ng/mL, 24 h
Experimental: Figure 3 CD spectra of peptides in LPS and effects of peptides on reactive oxygen species (ROS) production. (A) Secondary structures of WIK-10, WIR-10, WIK-14, and WIKE-14 peptides (50 µM) in 1 µg/mL Pseudomonas aeruginosa LPS. (B) RAW 264.7 cells were pre-incubated in the absence or presence of peptides (8 µM) for 30 min and treated with or without LPS (100 ng/mL). After 24 h incubation, the cells were treated using H2DCFDA and incubated for […], following which the fluorescent cells were observed under a fluorescence microscope.
RAW 264.7 cells (1 × 10^6 cells/mL) plated in a 24-well plate were pre-cultured for 24 h. Peptides in RPMI-1640 medium were then pretreated to cells for 30 min and P. aeruginosa LPS (100 ng/mL) was added, followed by additional incubation for 24 h. Control cells are not treated with peptides and LPS. H2DCFDA (10 µL, final concentration 10 µM) was treated to the cells, followed by incubation for 30 min in a CO2 incubator. The cells washed with cold-PBS buffer were then observed using a fluorescence microscope (OPTINIT KCS3-160S; Korea Lab Tech, Seongnam, Gyeonggi-do, Republic of Korea).

[3] = tested on: binding between LPS and RAW 264.7 cells; test: Inhibition of FITC-LPS binding to RAW 264.7 cells (fluorescence microscopy and flow cytometry); type: cell-based, murine; settings: FITC-LPS 1 µg/mL, fluorescence microscopy, dose-dependent
Experimental: Figure 4 Inhibitory effects of peptides on binding between LPS and RAW 264.7 cells. Fluorescein isothiocyanate-labeled LPS and peptides were incubated for 12 h with RAW 264.7 cells, and cells were washed with PBS, followed by observation using fluorescence microscopy.
RAW 264.7 cells cultured in Roswell Park Memorial Institute Medium (RPMI)-1640 containing 10% fetal bovine serum (FBS) were aliquoted to 1 × 10^6 cells/mL in a 24-well plate, and cultured at 37 °C, 5% CO2 incubator for 24 h. Each well was treated with 1 µg/mL of FITC-attached LPS. After 1 h, peptides were added to the wells at the indicated concentrations. After incubation for 8 h, the cells were washed with cold-PBS, observed under a fluorescence microscope, and measured using flow cytometry (Beckman Coulter CytoFlex, Brea, CA, USA).

RAW 264.7 cells [4] = test: Cytokine mRNA (IL-6, TNF-α) in LPS-stimulated RAW 264.7 cells (RT-PCR); type: cell-based, murine; settings: RAW 264.7, LPS 1 μg/mL, 32 μM peptide, 8 h, compared to only LPS-treated cells
Experimental: (§1) Figure 6 Anti-inflammatory effects of peptides in RAW 264.7 cells. (A) Secreted nitric oxide and tumor necrosis factor-α were measured from the supernatants after 24 h of LPS-stimulation with peptides (32 µM). (B) mRNA expression of RAW 264.7 cells with peptides. IL-6, interleukin-6, TNF- α, tumor necrosis factor-α; GAPDH, Glyceraldehyde 3-phosphate dehydrogenase. 1: control, 2: LPS, 3: LPS+Polymyxin B, 4: LPS+KIW-10, 5: LPS+WIK-10, 6: LPS+RIW-10, 7: LPS+WIR-10, 8: LPS+KIW-14, 9: LPS+WIK-14, 10: LPS+WIKE-14.
RAW 264.7 cells were cultured in RPMI-1640 medium containing 10% FBS, and then seeded to 5 × 10^6 cells/mL in a 6-well plate and cultured at 37 °C, 5% CO2 incubator for 24 h. Each well was treated with 1 μg/mL of LPS; after 1 h, 32 μM of each peptide was added and incubated for 8 h. Cells were collected, and total RNA was isolated using TRIzol reagent (Thermo Fisher Scientific, Waltham, MA, USA). 5′-[…]-3′ and 5′-[…]-3′ as Glyceraldehyde 3-phosphate dehydrogenase primers, 5′-[…]-3′ and 5′-[…]-3′ as IL-6 primers, and 5′-[…]-3′ and 5′-[…]-3′ as TNF-α primers were used for reverse transcription-polymerase chain reaction (RT-PCR). The PCR products generated using the Maxime RT-PCR premix kit (IntronBio, Seongnam, Gyeonggi-do, Republic of Korea) were confirmed using electrophoresis.

RAW 264.7 cells [5] = test: Nitric oxide production in LPS-stimulated RAW 264.7 cells (Griess); type: cell-based, murine; settings: RAW 264.7, P. aeruginosa LPS 1 µg/mL, peptides 32 µM, 24 h, Griess reagent
Experimental: as §1
The murine macrophage cell RAW 264.7 was grown RPMI-1640 medium supplemented with 10% FBS and then plated at a density of 1 × 10^6 cells/mL in a 24-well microplate. After incubation for 24 h, the cells were stimulated with P. aeruginosa LPS (1 µg/mL), followed by further incubation for 1 h. Peptides were incubated for 24 h. Nitrite was measured by adding 100 µL of cell culture extract to 100 µL of Griess reagent (1% sulfanilamide and 0.1% naphthylenediamine in 5% phosphoric acid). The nitrite concentrations were calculated by comparing the absorbance of sodium nitrite standard solutions. The optical density was evaluated at 550 nm in a microplate reader (Molecular Devices, Emax, CA, USA). TNF-α levels in culture supernatants were analyzed using the R&D system TNF-α EASIA kit, Minneapolis, MN, USA). The developed color was determined by measuring the OD at 490 nm in a microplate reader.

| Substance | GM, geometric mean of minimum inhibitory concentration values [1] | also measured |
| --- | --- | --- |
| WIKKIWKKIIKEIK-NH2 [WIKE-14] | 8 ± 0.8 µM | toxicity in lung tissue cells, peptide alone (Balb/c mice lungs): non-toxic |
| KKIIKKIWKW-NH2 [KIW-10] | 11 ± 1 µM |  |
| RRIWRRWIRI-NH2 [RWI-10] | 7 ± 1.2 µM |  |
| KKIWKKWIKI-NH2 [KWI-10] | 10.5 ± 1.2 µM |  |
| WIKKIWKKIK-NH2 [WIK-10] | 6.5 ± 0.8 µM |  |
| RRIIRRIWRW-NH2 [RIW-10] | 8.5 ± 0.8 µM |  |
| WIRRIWRRIR-NH2 [WIR-10] | 3 ± 0.2 µM |  |
| melittin |  | ROS-producing level of LPS-treated cells (RAW 264.7 cells [2]): significantly reduced |
| WIKKIWKKIIKKIK-NH2 [WIK-14] | 2.1 ± 0.4 µM | toxicity in lung tissue cells, peptide alone (Balb/c mice lungs): toxic |
| KKIIKKIIKKIWKW-NH2 [KIW-14] | 2.6 ± 1.2 µM |  |
| polymyxin B |  | FITC fluorescence signals in RAW 264.7 cells (FITC-LPS binding) [3]: dramatically decreased; expression levels of IL-6 and TNF-α (mRNA) (RAW 264.7 cells [4]): clearly decreased; LPS-induced NO secretion (RAW 264.7 cells [5]): inhibited; ROS-producing level of LPS-treated cells (RAW 264.7 cells [2]): significantly reduced |
| KKIWKKWIKKIIKI-NH2 [KWI-14] | 2.6 ± 0.8 µM |  |
